This data set is described as follows: passive permeability, PAMPA, ADME assay (AID 1508612). The settings on record: pH 7.4, 30.0 min, 50.0 µM.

With `CC1CN(c2ccc(Nc3nc(-c4ccncc4)nc4ccccc34)cc2F)CC(C)O1` (configuration not stated), the Papp is greater than 1000 ×10⁻⁶ cm/s.
To `CC(C)Oc1cccc(-c2csc(N3CCC(C(N)=O)CC3)n2)c1` belongs greater than 1000 ×10⁻⁶ cm/s; to `COC1C(OC(=O)c2ccc(C)[nH]2)C(O)C(Oc2ccc3c(O)c(NC(=O)c4ccc(O)c(CC=C(C)C)c4)c(=O)oc3c2Cl)OC1(C)C` (configuration not stated), 7.04 ×10⁻⁶ cm/s; to `CC(=O)c1c(C)c(C(=O)Nc2cccc([S+](=O)([O-])N3CCCCCC3)c2)n(C)c1C`, greater than 1000 ×10⁻⁶ cm/s.
The compound `CCCCCn1c(CCCNC(=O)c2ccccc2OC)nc2ccccc21` had a Papp greater than 1000 ×10⁻⁶ cm/s.
The compound `FC(F)(F)c1cc(-c2ccc(CNc3nc(-c4ccccc4C(F)(F)F)nc4ccsc34)cc2)ccn1` registered an apparent permeability coefficient (Papp) of 455 ×10⁻⁶ cm/s.
`Cc1ccc(S(=O)(=O)Nc2ccncc2C(=O)Nc2nc(-c3ccccc3)cs2)cc1`: the Papp is less than 1 ×10⁻⁶ cm/s.
The compound `Cc1cc2c(-c3cccc(O)c3)nc(-c3c(C)noc3C)cc2[nH]1` showed a Papp greater than 1000 ×10⁻⁶ cm/s.
Turning to `CNc1nc(C#N)c(-c2cccc3ccccc23)o1`, the Papp is greater than 1000 ×10⁻⁶ cm/s.
For the compound `Cn1cc(-c2nc(Nc3ccc(F)c(F)c3)c3ccccc3n2)cn1`, the Papp amounted to 315 ×10⁻⁶ cm/s.
The compound `CCCCC(C)/C=C(C)/C=C(\C)C(=O)NC1=CC(O)(/C=C/C=C/C=C/C(=O)NC2=C(O)CCC2=O)C2OC2C1=O` (configuration not stated) displayed an apparent permeability coefficient (Papp) of 955 ×10⁻⁶ cm/s.
Compound `CCCc1ccc(C(=O)NC(=O)c2ccccc2O)cc1` yielded a Papp of less than 1 ×10⁻⁶ cm/s.
Compound `O=C(Nc1nc2cc(C(F)(F)F)cc(NC3CC3)n2n1)c1cccnc1` registered a Papp of 197 ×10⁻⁶ cm/s.
`O=C(O)c1ccnc(-c2cc(C(=O)NCCc3ccccc3)ccn2)c1` gave a Papp of less than 1 ×10⁻⁶ cm/s.
`O=c1[nH]c(C2CCN(CC3CCCCC3)CC2)nn1Cc1ccccc1`: the Papp is less than 1 ×10⁻⁶ cm/s.
The compound `C[C@@H]1CC(=O)Nc2cccc(-c3cnn(C(C)(C)C)c3)c2N1` displayed a Papp of 56.5 ×10⁻⁶ cm/s.
In turn, `C#Cc1ccc(NC(=O)c2cnn3c(C)cc(C)nc23)cc1` had a Papp of 14 ×10⁻⁶ cm/s.
`COc1ccc2nc(C)cc(Nc3ccc(Cl)c(Cl)c3)c2c1`: the Papp was greater than 1000 ×10⁻⁶ cm/s.
In turn, `CCOC(=O)N1CCN(Cc2nc3cc(NC(=O)CC(C)C)ccc3n2C(C)C)CC1` gave a Papp of 613 ×10⁻⁶ cm/s.
Compound `Cc1ccnc(NC(=S)N2CCN(c3ccc(N)cc3)CC2)c1` displayed a Papp of 717 ×10⁻⁶ cm/s. This Papp and that of the compound before are within 1.5-fold of each other.
Turning to `Cc1ccc(NC(=O)c2cc(-c3ccc(C)o3)nc3ccccc23)nc1`, the Papp is greater than 1000 ×10⁻⁶ cm/s.
In turn, `NC(=O)C1CCN(c2nc(-c3cccc([N+](=O)[O-])c3)cs2)CC1` had a Papp of 568 ×10⁻⁶ cm/s.
As for `CC(=O)c1ccc(N2CCN(S(=O)(=O)c3ccc4[nH]c(=O)[nH]c4c3)CC2)cc1`, the Papp is less than 1 ×10⁻⁶ cm/s.
Compound `COc1cc(C2c3cc(O)c(OC)cc3CC3C(=O)OCC32)ccc1O` (configuration not stated) showed a Papp of 129 ×10⁻⁶ cm/s.
For `CCOc1ccc(CCNC(=O)c2cc3sccc3n2Cc2ccccn2)cc1OCC`, the apparent permeability coefficient (Papp) is greater than 1000 ×10⁻⁶ cm/s.
For `Cc1ccc(NS(=O)(=O)c2ccc3c(c2)NC(=O)CO3)cc1C` the value was 706 ×10⁻⁶ cm/s; for `COc1ccnc(NC(=S)N2CCN(c3cccc(C(F)(F)F)n3)CC2)c1`, greater than 1000 ×10⁻⁶ cm/s; for `COC(=O)C1=COC(C)C2CN3CCc4c([nH]c5cc(OC)c(OC)cc45)C3CC12` (configuration not stated), 366 ×10⁻⁶ cm/s.
For `Cc1cc(NS(=O)(=O)c2ccc(NC(=O)Cc3ccc(Cl)c(Cl)c3)cc2)no1` the value was 30.2 ×10⁻⁶ cm/s; for `COc1ccnc(NC(=S)N2CCN(c3cc(C(F)(F)F)cc(C(F)(F)F)c3)CC2)c1`, 373 ×10⁻⁶ cm/s; for `Cc1ccc(Nc2nc(C)c(NC(=O)c3ccc(C)cc3)c(Nc3ccc(C)cc3)n2)cc1`, 291 ×10⁻⁶ cm/s.
In turn, `O=C1Nc2cc(Cl)ccc2Nc2cscc21` returned a Papp of 478 ×10⁻⁶ cm/s.
To `O=C(c1nc(-c2ccc(Cl)cc2Cl)c2cnccn12)N1CCOCC1` belongs greater than 1000 ×10⁻⁶ cm/s.
Consider `COc1ccc(-c2csc(NC(=O)c3ccncc3NS(=O)(=O)c3ccc(C)cc3)n2)cc1`, for which the Papp was greater than 1000 ×10⁻⁶ cm/s.
Turning to `O=C(Nc1ccc(S(=O)(=O)Nc2nccs2)cc1)c1cccc2ccccc12`, the Papp is 11.9 ×10⁻⁶ cm/s.
`CCOC(=O)C1CCN(c2nc(-c3ccc(Br)cc3)cs2)CC1`: the Papp was 120 ×10⁻⁶ cm/s. This Papp is about 10-fold higher than that of the compound before.
For `Oc1ccc(CNc2ccc(F)cc2F)c2cccnc12` the value was 178 ×10⁻⁶ cm/s.

Source of the values: PubChem BioAssay AID1508612.
